The text below walks through data of PubChem BioAssay AID1745844 (Carcinogenic Potency Database (CPDB), 2022).

The test system of the data set is rodent lifetime carcinogenesis bioassay, tumor incidence TD50. The experiment in a line: chronic cancer bioassays in animals – CPDB, compiled studies (AID 1745844).

Where “and” joins values, the source holds several entries; their conditions need not be identical. Equal entries are not always repeated. Calls of active or inactive are those of the source. No rule for the calls is given here.

Usually TD50 stands for the dose at which the toxic effect under study appears in half of the subjects. For the compound `c1ccncc1`, the TD50 is 690 mg/kg/day (mouse, strain B6C3F1, females, in drinking water, site: all sites, lesion: hemangioma + hemangiosarcoma, dosed 104 weeks, study length 104 weeks); 868 mg/kg/day (mouse, strain B6C3F1, females, in drinking water, site: all sites, lesion: hemangioma, dosed 104 weeks, study length 104 weeks); 338 mg/kg/day (mouse, strain B6C3F1, females, in drinking water, site: any site (literature study), lesion: several types, types named in the paper, dosed 104 weeks, study length 104 weeks); 27.2 mg/kg/day (mouse, strain B6C3F1, females, in drinking water, site: liver, lesion: hepatoblastoma + hepatocellular carcinoma, dosed 104 weeks, study length 104 weeks); 132 mg/kg/day (mouse, strain B6C3F1, females, in drinking water, site: liver, lesion: hepatoblastoma, dosed 104 weeks, study length 104 weeks); 150 mg/kg/day (mouse, strain B6C3F1, females, in drinking water, site: liver, lesion: hepatocellular adenoma + hepatoblastoma + hepatocellular carcinoma, dosed 104 weeks, study length 104 weeks). The TD50 runs as follows: (mouse, strain B6C3F1, females, in drinking water, site: liver, lesion: hepatocellular adenoma, dosed 104 weeks, study length 104 weeks) 41.9 mg/kg/day; (mouse, strain B6C3F1, females, in drinking water, site: liver, lesion: hepatocellular carcinoma, dosed 104 weeks, study length 104 weeks) 41.6 mg/kg/day; (mouse, strain B6C3F1, females, in drinking water, site: lung, lesion: alveolar/bronchiolar adenoma + alveolar/bronchiolar carcinoma, dosed 104 weeks, study length 104 weeks) 1990 mg/kg/day; (mouse, strain B6C3F1, males, in drinking water, site: any site (literature study), lesion: several types, types named in the paper, dosed 103 weeks, study length 103 weeks) 25700 mg/kg/day; (mouse, strain B6C3F1, males, in drinking water, site: liver, lesion: hepatoblastoma + hepatocellular carcinoma, dosed 103 weeks, study length 103 weeks) 22.1 mg/kg/day; (mouse, strain B6C3F1, males, in drinking water, site: liver, lesion: hepatoblastoma, dosed 103 weeks, study length 103 weeks) 68.1 mg/kg/day. In addition, the TD50 runs as follows: (mouse, strain B6C3F1, males, in drinking water, site: liver, lesion: hepatocellular adenoma + hepatoblastoma + hepatocellular carcinoma, dosed 103 weeks, study length 103 weeks) 496 mg/kg/day; (mouse, strain B6C3F1, males, in drinking water, site: liver, lesion: hepatocellular adenoma, dosed 103 weeks, study length 103 weeks) 488 mg/kg/day; (mouse, strain B6C3F1, males, in drinking water, site: liver, lesion: hepatocellular carcinoma, dosed 103 weeks, study length 103 weeks) 28.6 mg/kg/day; (rat, strain Fischer 344, females, in drinking water, site: all sites, lesion: mononuclear-cell leukemia, dosed 104 weeks, study length 104 weeks) 31.2 mg/kg/day; (rat, strain Fischer 344, females, in drinking water, site: any site (literature study), lesion: several types, types named in the paper, dosed 104 weeks, study length 104 weeks) 32.9 mg/kg/day; (rat, strain Fischer 344, males, in drinking water, site: any site (literature study), lesion: several types, types named in the paper, dosed 103 weeks, study length 103 weeks) 31 mg/kg/day. In addition, the TD50 by setting is: (rat, strain Fischer 344, males, in drinking water, site: kidney, lesion: tubule adenoma + tubule carcinoma, dosed 103 weeks, study length 103 weeks) 67.3 mg/kg/day and 74.6 mg/kg/day; (rat, strain Fischer 344, males, in drinking water, site: kidney, lesion: tubule adenoma, dosed 103 weeks, study length 103 weeks) 73.7 mg/kg/day and 75.6 mg/kg/day; (rat, strain Fischer 344, males, in drinking water, site: liver, lesion: hepatocellular adenoma + hepatoblastoma + hepatocellular carcinoma, dosed 103 weeks, study length 103 weeks) 160 mg/kg/day; (rat, strain Wistar, males, in drinking water, site: any site (literature study), lesion: several types, types named in the paper, dosed 103 weeks, study length 103 weeks) 7.14 mg/kg/day; (rat, strain Wistar, males, in drinking water, site: testis, lesion: interstitial-cell adenoma, bilateral + interstitial-cell adenoma, dosed 103 weeks, study length 103 weeks) 22.4 mg/kg/day; (rat, strain Wistar, males, in drinking water, site: thyroid gland, lesion: follicular-cell adenoma, bilateral + follicular-cell adenoma, dosed 103 weeks, study length 103 weeks) 38.4 mg/kg/day.

On to `COc1ccc(C(Cl)=C(c2ccc(OC)cc2)c2ccc(OC)cc2)cc1`, for which the carcinogen call runs as follows: (rat, strain Charles River CD (Sprague-Dawley), females, in feed, site: liver, lesion: one or several types, types not named, dosed 104 weeks, study length 104 weeks) “negative (inactive)”; (rat, strain Charles River CD (Sprague-Dawley), males, in feed, site: liver, lesion: one or several types, types not named, dosed 104 weeks, study length 104 weeks) “negative (inactive)”.

As to `CC(=O)NNc1ccc(CO)cc1`, the TD50 (mouse, strain Swiss albino, females, in drinking water, site: blood vessels, lesion: several types, types named in the paper, dosed 115 weeks, study length 115 weeks) was 287 mg/kg/day; the TD50 (mouse, strain Swiss albino, females, in drinking water, site: lung, lesion: several types, types named in the paper, dosed 115 weeks, study length 115 weeks) is 329 mg/kg/day; the TD50 (mouse, strain Swiss albino, males, in drinking water, site: blood vessels, lesion: several types, types named in the paper, dosed 115 weeks, study length 115 weeks) was 252 mg/kg/day; the TD50 (mouse, strain Swiss albino, males, in drinking water, site: lung, lesion: several types, types named in the paper, dosed 115 weeks, study length 115 weeks) was 208 mg/kg/day. Moreover, the carcinogen call (mouse, strain Swiss albino, males, in drinking water, site: liver, lesion: hepatoma, dosed 115 weeks, study length 115 weeks) is “negative (inactive)”.
